From patent US11198898B2, “Chemical tools for imaging phospholipase D activity” (CORNELL UNIVERSITY, priority 2017, dated 2021)
Like-named read-outs stand apart in the source and are kept apart here.

Assays:
[1] = tested on: endogenous PLD activity in HeLa cells; test: Azidoalcohol labelling of PMA-stimulated HeLa cells, lipid extraction, SPAAC with BODIPY-cyclooctyne 1, HPLC; format: cell-based, human; settings: for decrease of the signal: isoform-selective inhibitor during labeling
[2] = tested on: commercially available PLD; test: In vitro transphosphatidylation of DOPC with alkynols by a commercially available PLD, CuAAC with Az488, HPLC-fluorescence/ESI-MS; format: biochemical; settings: incubated with DOPC and PLD
[3] = tested on: PLD activity in HeLa cells; test: Imaging of PLD-mediated PA synthesis in fixed HeLa cells with alkynols, CuAAC with Az488, confocal microscopy; format: cell-based, human
Protocol: To image sites of PLD-mediated PA synthesis, HeLa cells were treated with each of the three longer-chain alkynols and again stimulated PLD activity acutely with PMA, in the absence or presence of FIPI. Rather than proceeding with a whole-cell lipid extraction, cells were fixed with paraformaldehyde and subjected to CuAAC labeling with Az488. […] The observed labeling pattern was complex, likely the result of PA synthesis on membranes of multiple intracellular compartments. To determine the subcellular locations of the hexynol-based labeling, a series of colocalization studies were performed with markers of various organelle membranes. In these studies, HeLa cells were transfected with plasmids encoding fluorescent protein fusions to constituents of several organellar membranes and then the PA labeling protocol was performed using 1 mM hexynol and, where appropriate, either Az488 or an azide-containing tetramethylrhodamine derivative.

[4] = tested on: mammalian PLDs in HeLa cells; test: Alkynol labelling of PMA-stimulated HeLa cells, lipid extraction, CuAAC with Az488, HPLC-fluorescence; format: cell-based, human; settings: for extent of incorporation into phosphatidyl alcohols compared to the shorter alkynols: at the same concentration
Protocol: Further experiments evaluated whether mammalian PLDs would accept alkynols as substrates within live cells. HeLa cells were treated with each of the five alkynols for 20 minutes, stimulated acute PA biosynthesis pharmacologically using phorbol 12-myristate 13-acetate (PMA) (McDermott M, et al., Biochem. Cell Biol. 2004 February; 82(1):225-53), and then isolated total cellular lipid extracts. Following CuAAC labeling with Az488, the samples were analyzed by HPLC coupled to fluorescence detection. The HPLC-fluorescence results for the five alkynols (denoted as 1, 2, 3, 4, or 5 in panels 1-5, respectively) are shown in FIG. 2B.
While all five alkynols were accepted as transphosphatidylation substrates in HeLa cells, they were processed by cellular PLDs with different efficiencies. […] The molecular identities of the fluorescently labeled phosphatidyl alcohols (PA analogs) were verified by analyzing labeled extracts from cells treated with each of the three longer-chain alkynols by HPLC followed by ESI-MS.
This robust labeling with pentynol, hexynol, and heptynol led to further experiments to investigate whether the dose of alkynol could be lowered. The initial concentration of 12.9 mM alkynol corresponded to the low end of the concentration range of 0.1-0.5 mol % that is typically used in the traditional TLC-based butanol transphosphatidylation assay. Such high concentrations of alcohol, however, have several negative consequences. First, they are sufficient to compete with water in the PLD active site and reduce the ability of PLDs to synthesize PA, thus impacting PA-dependent signaling.

[5] = tested on: PLD activity in live cells; format: cell-based
[6] = tested on: basal PLD activity in HeLa cells; test: Basal PLD activity in live cells: AzProp/SPAAC labelling, confocal microscopy with isoform-selective inhibitors; format: cell-based, human; settings: for effect of inhibitor on ER- and Golgi-derived fluorescence: HeLa cells; for effect of inhibitor on the high-fluorescence cell population: confocal microscopy
Protocol: To image sites of basal PLD activity within live cells, cells were treated with 1 mM AzProp for 2 hours and rinsed. The SPAAC reaction was then performed using (1).
Further experiments then examined the distribution of basal PLD activity at both the cellular and subcellular levels. […] Thus, at the cellular level, the high fluorescence of a minority of cells can be attributed to PLD1 activity, and the moderate fluorescence in the majority of cells to PLD2.
The subcellular localization of AzProp-marked basal PLD activity appeared to be similar to that of AzProp-marked, PMA-stimulated PLD enzymes, that is localized to a mixture of ER, Golgi, endosomal, and lysosomal membranes. Isoform-selective inhibitors were used to probe the relative contributions of each PLD isoform to PA biosynthetic activity on different organelle membranes. […] Thus, it can be concluded that, in HeLa cells, the bulk of ER-localized, basal PLD activity is due to PLD1, whereas PLD activity on Golgi membranes is due to a roughly equal mix of PLD1 and PLD2.

[7] = tested on: basal, endogenous PLD activity in HeLa cells; test: Basal PLD activity: HeLa cells with 1 mM AzProp, lipid extraction, SPAAC with (1), HPLC; format: cell-based, human
Protocol: Up to this point, the efforts focused on monitoring acute PLD activation in response to a stimulus, by using PMA as a model pharmacological agent to mimic activation of several signal transduction pathways. In the absence of a stimulus, however, it is known that PLD enzymes display a much lower but appreciable level of basal activity.
To accomplish this, HeLa cells were treated with 1 mM AzProp, followed by lipid extraction, SPAAC labeling with (1), and HPLC analysis.

[8] = HeLa cells, PMA, SPAAC with BODIPY-cyclooctyne 1
[9] = PMA-stimulated HeLa cells, HPLC

[N-]=[N+]=NCCCCCO [AzPent, 5-azido-1-pentanol]
fluorescent lipid species by HPLC [1, 8]: presence of fluorescent lipid species
efficacy as PLD substrate [1, 9]: performed roughly equivalently

C#CCO [propynol]
formation of the expected fluorescent phosphatidyl alcohol product (PLD substrate in vitro) [2]: confirmed the identity of the expected fluorescent phosphatidyl alcohol products

C#CCCCCO [hexynol, 5-hexyn-1-ol]
alkynol concentration permitting detection of alkynol-dependent and FIPI-sensitive fluorescence ([3]; confocal microscopy): ≥ 100 µM
signal-to-background ratio among the three longer-chain alkynols ([3]; confocal microscopy): highest signal-to-background ratio
alkynol concentration at which PA production could be detected in cells ([4]; HPLC): ≥ 100 µM
extent of incorporation into phosphatidyl alcohols compared to the shorter alkynols [4]: incorporated to a greater extent into phosphatidyl alcohols
formation of the expected fluorescent phosphatidyl alcohol product (PLD substrate in vitro) [2]: confirmed the identity of the expected fluorescent phosphatidyl alcohol products

C#CCCO [3-butyn-1-ol]
formation of the expected fluorescent phosphatidyl alcohol product (PLD substrate in vitro) [2]: confirmed the identity of the expected fluorescent phosphatidyl alcohol products

[N-]=[N+]=NCCCCO [AzBut, 4-azido-1-butanol]
fluorescent lipid species by HPLC [1, 8]: presence of fluorescent lipid species
efficacy as PLD substrate [1, 9]: performed roughly equivalently

[N-]=[N+]=NCCO [AzEt, 2-azidoethanol]
efficacy as PLD substrate [1]: poorer PLD substrate
fluorescent lipid species by HPLC [1]: presence of fluorescent lipid species
signal-to-background among the azidoalcohols [5]: highest

C[C@@H](CN1CCC(n2c(=O)[nH]c3cc(Br)ccc32)CC1)NC(=O)[C@@H]1C[C@H]1c1ccccc1 [VU0359595]
effect of inhibitor on ER- and Golgi-derived fluorescence [6]: selective disappearance of most of the ER-derived fluorescence but only a portion of the Golgi-derived fluorescence
effect of inhibitor on the high-fluorescence cell population [6]: disappearance of high-fluorescence cells
share of the unstimulated PLD activity attributed to the inhibited isoform [7]: roughly half
decrease of the signal ([1]; PMA-stimulated HeLa cells): approximately 75%

O=C(NCCN1CCC2(CC1)C(=O)NCN2c1cccc(F)c1)c1ccc2ccccc2c1 [VU0364739]
effect of inhibitor on ER- and Golgi-derived fluorescence [6]: decrease in Golgi-derived fluorescence but had minimal effect on ER-derived fluorescence
effect of inhibitor on the high-fluorescence cell population [6]: did not eliminate the high-fluorescence population
share of the unstimulated PLD activity attributed to the inhibited isoform [7]: roughly half
decrease of the signal ([1]; PMA-stimulated HeLa cells): ~25%

O=C(NCCN1CCC(n2c(=O)[nH]c3ccccc32)CC1)c1cc2cc(F)ccc2[nH]1 [FIPI, 5-fluoro-2-indolyl deschlorohalopemide, reference compound]
labeling in cells treated with alkynol and PLD inhibitor (negative control) ([3]; PMA, CuAAC with Az488): minimal background labeling
effect of inhibitor on basal phosphatidyl alcohol production ([7]; unstimulated HeLa cells): prevented phosphatidyl alcohol production
effect of inhibitor on fluorescent lipid species ([1]; treatment of cells during the labeling procedure, PMA-stimulated): complete loss of the fluorescent lipid species

C#CCCCCCO [heptynol, 6-heptyn-1-ol]
extent of incorporation into phosphatidyl alcohols compared to the shorter alkynols [4]: incorporated to a greater extent into phosphatidyl alcohols
formation of the expected fluorescent phosphatidyl alcohol product (PLD substrate in vitro) [2]: confirmed the identity of the expected fluorescent phosphatidyl alcohol products

C#CCCCO [pentynol, 4-pentyn-1-ol]
extent of incorporation into phosphatidyl alcohols compared to the shorter alkynols [4]: incorporated to a greater extent into phosphatidyl alcohols
formation of the expected fluorescent phosphatidyl alcohol product (PLD substrate in vitro) [2]: confirmed the identity of the expected fluorescent phosphatidyl alcohol products
